Measured values reported in ChEMBL document CHEMBL1133175, “QSAR analysis of Delta(8)-THC analogues: relationship of side-chain conformation to cannabinoid receptor affinity and pharmacological potency” (J Med Chem, 2000).

Molecular target: T1, Cannabinoid receptor 1 (Homo sapiens, UniProt P21554)
Assay: Binding affinity against Cannabinoid receptor 1.

T1 sequence (P21554 whole entry): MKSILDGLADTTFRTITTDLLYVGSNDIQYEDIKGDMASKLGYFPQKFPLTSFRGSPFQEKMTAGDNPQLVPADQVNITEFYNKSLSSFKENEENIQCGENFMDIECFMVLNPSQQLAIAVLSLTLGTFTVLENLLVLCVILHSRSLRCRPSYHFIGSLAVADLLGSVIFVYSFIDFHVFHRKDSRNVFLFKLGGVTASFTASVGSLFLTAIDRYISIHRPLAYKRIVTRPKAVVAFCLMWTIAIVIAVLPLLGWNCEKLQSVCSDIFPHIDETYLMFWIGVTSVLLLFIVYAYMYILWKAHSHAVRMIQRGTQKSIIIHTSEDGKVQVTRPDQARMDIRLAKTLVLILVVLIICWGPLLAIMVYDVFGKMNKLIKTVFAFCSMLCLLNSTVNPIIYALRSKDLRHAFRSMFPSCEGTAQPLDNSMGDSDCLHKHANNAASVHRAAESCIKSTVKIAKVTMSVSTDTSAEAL

Compared with `CCCCCCC#CCc1cc(O)c2c(c1)OC(C)(C)C1CC=C(C)CC21` (stereo not given), `CCCC#CCc1cc(O)c2c(c1)OC(C)(C)C1CC=C(C)CC21` (stereo not given) is 3-fold higher in Kd: 3.7 nM for the first, 11 nM for the second.

First: CC1=CCC2C(C1)c1c(O)cccc1OC2(C)C (stereo not given)
Second: C#CCCc1cc(O)c2c(c1)OC(C)(C)C1CC=C(C)CC21 (stereo not given)
The Kd of the first is 8.2-fold lower: 45 nM for the first, 367 nM for the second. The first binds more tightly here.

First: CC1=CCC2C(C1)c1c(O)cc(CC#CCCC#N)cc1OC2(C)C (stereo not given)
Second: CC1=CCC2C(C1)c1c(O)cc(CC#CCCCBr)cc1OC2(C)C (stereo not given)
The Kd of the first is 26-fold higher: 31 nM for the first, 1.2 nM for the second. The second binds more tightly here.

First: CC1=CCC2C(C1)c1c(O)cc(C#CCCCC#N)cc1OC2(C)C (stereo not given)
Second: C#CCCCC#Cc1cc(O)c2c(c1)OC(C)(C)C1CC=C(C)CC21 (stereo not given)
The Kd of the first is 4.4-fold lower: 104 nM for the first, 460 nM for the second. The first binds more tightly here.

Compared with `CCCC#CCCCc1cc(O)c2c(c1)OC(C)(C)C1CC=C(C)CC21` (stereo not given), `CCCCC#CCCc1cc(O)c2c(c1)OC(C)(C)C1CC=C(C)CC21` (stereo not given) is 2.1-fold lower in Kd: 19 nM for the first, 9 nM for the second. The second binds more tightly here.

First: CCCCC/C=C/c1cc(O)c2c(c1)OC(C)(C)C1CC=C(C)CC21 (stereo not given)
Second: CCCCC/C=C/Cc1cc(O)c2c(c1)OC(C)(C)C1CC=C(C)CC21 (stereo not given)
The Kd of the first is 3.7-fold lower: 0.86 nM for the first, 3.19 nM for the second.

First: CC1=CCC2C(C1)c1c(O)cc(C=C=CCCCC(=O)O)cc1OC2(C)C (stereo not given)
Second: CC1=CCC2C(C1)c1c(O)cc(C/C=C/CCCBr)cc1OC2(C)C (stereo not given)
The Kd of the first is 1900-fold higher: 3170 nM for the first, 1.66 nM for the second.

First: CC1=CCC2C(C1)c1c(O)cc(CC#CCCC[N+](=O)[O-])cc1OC2(C)C (stereo not given)
Second: CC1=CCC2C(C1)c1c(O)cc(CC#CCBr)cc1OC2(C)C (stereo not given)
The Kd of the first is 27-fold lower: 5.34 nM for the first, 143 nM for the second.

First: CC1=CCC2C(C1)c1c(O)cc(C/C=C/CCCC#N)cc1OC2(C)C (stereo in doubt; 29)
Second: CCCC/C=C/CCc1cc(O)c2c(c1)OC(C)(C)C1CC=C(C)CC21 (stereo not given)
The Kd of the first is 4.4-fold lower: 0.77 nM for the first, 3.36 nM for the second. The first binds more tightly here.

Going from `COC(=O)C#CCCc1cc(O)c2c(c1)OC(C)(C)C1CC=C(C)CC21` (stereo not given) to `COC(=O)C#CCc1cc(O)c2c(c1)OC(C)(C)C1CC=C(C)CC21` (stereo not given), the Kd falls from greater than 10000 nM to 731 nM. The second binds more tightly here.

Going from `CCCCCC#CCc1cc(OC)c2c(c1)OC(C)(C)C1CC=C(C)CC21` (stereo not given) to `CCC/C=C/CCCc1cc(O)c2c(c1)OC(C)(C)C1CC=C(C)CC21` (stereo not given), the Kd falls from 189 nM to 11 nM (17-fold).

Work on `CC1=CCC2C(C1)c1c(O)cc(C/C=C/CCCC#N)cc1OC2(C)C` (stereo in doubt; 30) yielded a Kd of 1.25 nM.

Molecular target: T1, Cannabinoid receptor 1
Assay: Tested for binding affinity against Cannabinoid receptor 1 (CB1)

In order of rising Kd:
1. C#CCCCC#CCc1cc(O)c2c(c1)OC(C)(C)C1CC=C(C)CC21 (stereo not given)  4.7 nM
2. CCCCCC#CCc1cc(O)c2c(c1)OC(C)(C)C1CC=C(C)CC21 (stereo not given)  4.9 nM

Molecular target: T1, Cannabinoid receptor 1
Assay: Tested for binding affinity against Cannabinoid receptor 1 (CB1).

In order of falling Kd:
1. CC1=CCC2C(C1)c1c(O)cc(CC#CCCO)cc1OC2(C)C (stereo not given)  448 nM
2. CC(=O)NCCC#CCc1cc(O)c2c(c1)OC(C)(C)C1CC=C(C)CC21 (stereo not given)  307 nM
3. CC1=CCC2C(C1)c1c(O)cc(C/C=C/CCCO)cc1OC2(C)C (stereo not given)  53.7 nM
4. CCCCCC#Cc1cc(O)c2c(c1)OC(C)(C)C1CC=C(C)CC21 (stereo not given)  36 nM
5. CC1=CCC2C(C1)c1c(O)cc(CC#CC(C)Br)cc1OC2(C)C (stereo not given)  25 nM
6. CC1=CCC2C(C1)c1c(O)cc(C/C=C/CCCF)cc1OC2(C)C (stereo not given)  20.9 nM
7. CC(=O)NCCC/C=C/Cc1cc(O)c2c(c1)OC(C)(C)C1CC=C(C)CC21 (stereo not given)  16.7 nM
8. COCCC/C=C/Cc1cc(O)c2c(c1)OC(C)(C)C1CC=C(C)CC21 (stereo not given)  11.5 nM
9. CC1=CCC2C(C1)c1c(O)cc(C/C=C/CCCC[N+](=O)[O-])cc1OC2(C)C (stereo not given)  3.56 nM
10. CCCCCCC(C)(C)c1cc(O)c2c(c1)OC(C)(C)C1CC=C(C)CC21 (stereo not given)  0.77 nM
